Results published in patent publication US6924309B2 (Children, Youth and Women's Health Service Incorporated, priority 1999, dated 2005).

What was measured:
5-LO = test: Effect on 5-LO catalysed oxidation of arachidonic acid; format: biochemical
12-LO [1] = biological target: T1, 12-LO (Sus scrofa, UniProt P16469); test: Effect on 12-LO catalysed oxidation of arachidonic acid; format: biochemical, porcine
T1 construct: purchased Cayman Chemical Company
T1 sequence (P16469 1-663): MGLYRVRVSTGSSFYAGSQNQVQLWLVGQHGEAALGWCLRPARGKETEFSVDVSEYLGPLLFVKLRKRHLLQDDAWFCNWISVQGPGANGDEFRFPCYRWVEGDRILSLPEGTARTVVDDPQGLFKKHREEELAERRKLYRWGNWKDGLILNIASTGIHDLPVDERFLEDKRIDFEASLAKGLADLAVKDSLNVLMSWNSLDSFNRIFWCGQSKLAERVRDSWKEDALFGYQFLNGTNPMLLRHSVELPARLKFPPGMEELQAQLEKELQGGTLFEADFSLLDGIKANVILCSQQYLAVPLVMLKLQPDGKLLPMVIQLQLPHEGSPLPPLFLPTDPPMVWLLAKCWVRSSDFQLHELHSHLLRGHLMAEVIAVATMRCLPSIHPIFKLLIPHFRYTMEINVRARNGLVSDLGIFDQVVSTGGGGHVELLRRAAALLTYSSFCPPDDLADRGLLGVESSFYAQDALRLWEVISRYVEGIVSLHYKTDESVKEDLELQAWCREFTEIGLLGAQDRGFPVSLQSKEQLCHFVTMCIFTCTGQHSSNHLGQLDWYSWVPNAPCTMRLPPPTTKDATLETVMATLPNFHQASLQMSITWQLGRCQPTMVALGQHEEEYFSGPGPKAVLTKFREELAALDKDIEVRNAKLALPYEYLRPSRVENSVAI

15-LO = biological target: T2, 15-LO (Glycine max, UniProt P08170); test: 15-LO catalysed oxidation of the nitro compounds (substrate test); format: biochemical, soybean; details: for Substrate for 15-LO: pH 9.0 buffer, UV 234 nm
T2 construct: purchased Sigma Chemical Company
T2 sequence (P08170 1-839): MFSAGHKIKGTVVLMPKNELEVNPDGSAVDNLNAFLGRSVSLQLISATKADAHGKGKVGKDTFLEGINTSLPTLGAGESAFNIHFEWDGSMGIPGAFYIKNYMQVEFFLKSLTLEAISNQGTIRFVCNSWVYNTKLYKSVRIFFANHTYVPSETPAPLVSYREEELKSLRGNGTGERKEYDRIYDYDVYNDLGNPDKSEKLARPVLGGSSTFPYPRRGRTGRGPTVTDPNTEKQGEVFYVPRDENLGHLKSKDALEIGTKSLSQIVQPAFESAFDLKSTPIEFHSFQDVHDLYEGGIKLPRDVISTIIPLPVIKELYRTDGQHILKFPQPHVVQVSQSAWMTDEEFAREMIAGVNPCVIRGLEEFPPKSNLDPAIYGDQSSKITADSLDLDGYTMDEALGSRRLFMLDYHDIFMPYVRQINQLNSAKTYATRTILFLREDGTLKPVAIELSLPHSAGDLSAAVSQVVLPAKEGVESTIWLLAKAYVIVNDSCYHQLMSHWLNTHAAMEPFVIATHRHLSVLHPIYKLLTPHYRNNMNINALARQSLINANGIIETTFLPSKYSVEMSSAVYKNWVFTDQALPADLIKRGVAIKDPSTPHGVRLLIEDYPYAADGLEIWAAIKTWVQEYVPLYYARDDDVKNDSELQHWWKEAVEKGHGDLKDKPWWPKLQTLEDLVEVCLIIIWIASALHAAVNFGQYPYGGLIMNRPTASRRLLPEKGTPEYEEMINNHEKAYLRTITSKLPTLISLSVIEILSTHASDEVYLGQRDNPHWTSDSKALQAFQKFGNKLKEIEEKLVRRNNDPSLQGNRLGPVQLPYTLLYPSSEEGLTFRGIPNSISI
Procedure: (§1) Based on this consideration, 5-LO, 12-LO and 15-LO catalysed oxidation of the nitro compounds (4a, 4b, 6a, 6b, 8a and 8b) was investigated. Each of the nitro compounds was treated with 15-LO in pH 9.0 buffer (or 5-LO in pH 6.3 buffer and 12-LO in pH 7.4 buffer), and the formation of 15-hydroperoxy derivatives (or 5-hydroperoxy or 12-hydroperoxy derivatives) over time was monitored by UV spectroscopy at 234 nm.

12-LO [2] = biological target: T1, 12-LO; test: 12-LO catalysed oxidation of the nitro compounds (substrate test); format: biochemical, porcine; details: pH 7.4 buffer, UV 234 nm
Procedure: as §1

[3] = system: Plasmodium falciparum isolates 3D7, FC27, K+; test: Radiometric (3H-hypoxanthine) assay on asexual blood stages of P. falciparum; format: cell-based
How it was run: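 Isolates grown in human O+ erythrocytes with 10% AB serum at 37 °C; cultures at 1×10^8 erythrocytes/ml were exposed to the fatty acids for 4 h, then pulsed with 3H-hypoxanthine for a further 18 h. Incorporated radioactivity was counted and expressed as % growth inhibition versus diluent-treated cultures.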

human neutrophils = test: AA-enhanced chemiluminescence in human neutrophils; format: cell-based; details: neutrophils pretreated with compound
Procedure: Arachidonic acid (AA) is a natural agonist which stimulates oxygen radical production in neutrophils leading to tissue damage during inflammation. Studies were conducted to examine whether or not the Lx compounds could antagonise the effects of AA. Neutrophils were pretreated with Lx compounds and then examined for chemiluminescence response to AA addition. […] The effect of Lx compounds on AA-enhanced chemiluminescence in human neutrophils is shown graphically in FIG. 11.

[4] = listed as (all-Z)-4-nitrotricosa-8,11,14,17-tetraenoic acid

`CCCCC/C=C\C/C=C\C/C=C\C/C=C\CCCC(CCC(=O)O)[N+](=O)[O-]` (centres unmarked) [Lx7, (a11-Z)-4-Nitrotricosa-8,11,14,17-tetraenoic acid] was tested, and the “Effect on 5-LO catalysed oxidation of AA” value (5-LO) was “Activatory”, the “Effect on 12-LO catalysed oxidation of AA” value (12-LO [1]) was “Substrate” and the “Vmax for 15-LO catalysed oxidation of the compound” value (15-LO; Lineweaver Burke) was “Vmax = 24.48 μM/min”. For the same compound, the “Vmax for 15-LO catalysed oxidation of the compound” value (15-LO; Lineweaver Burke, listed as 6b) was 24.48 µM/min, the Km (15-LO; Lineweaver Burke, read-out: Km for 15-LO catalysed oxidation of the compound) was 8.4 µM and the “Substrate for 15-LO” value (15-LO; listed as 6b) was “substrate”. The “Substrate for 15-LO” value (15-LO; [4]) was “good substrate”, the “Substrate for 12-LO” value (12-LO [2]; listed as 6b) was “substrate” and the “Substrate for 12-LO” value (12-LO [2]; [4]) was “good substrate”. The “Antimalarial activity (in words)” value [3] was “did not have appreciable antimalarial activity” and the “Inhibition of AA-stimulated oxygen radical production (chemiluminescence)” value (human neutrophils) was “particularly evident”.
